Common to all, as to format: functional
Assay [1] deals with MM1.S. Put plainly: Induction of apoptosis in human MM1.S cells assessed as necrotic cells at 5 micromol/L incubated for 48 hrs by annexin V/PI staining based flow cytometry (reference value: 0.17%). Conditions: dose 5 µmol/L, at 5 µM. (In general: Flow cytometry measures light scatter and fluorescence of single cells or particles in a stream.)
Assay [2] has as its system MM1.S. Put plainly: Induction of apoptosis in human MM1.S cells assessed as late apoptotic cells at 5 micromol/L incubated for 48 hrs by annexin V/PI staining based flow cytometry (reference value: 3.6%). The settings on record: dose 5 µmol/L, at 5 µM.
Assay [3] relates to MM1.S. Put plainly: Induction of apoptosis in human MM1.S cells assessed as early apoptotic cells at 5 micromol/L incubated for 48 hrs by annexin V/PI staining based flow cytometry (reference value: 8.03%). Conditions: dose 5 µmol/L, at 5 µM.
Assay [4] concerns MM1.S. Description: Induction of apoptosis in human MM1.S cells assessed as viable cells at 5 micromol/L incubated for 48 hrs by annexin V/PI staining based flow cytometry (reference value: 88.2%). Conditions: dose 5 µmol/L, read-out: Activity.

On to `CCCc1cc(C)[nH]c(=O)c1CNC(=O)c1cc(-c2ccc(N3CCN(C(C)C)CC3)nc2)cc2c1cnn2C(C)C`, for which the Activity in the assay on MM1.S [1] came out at 0.41%; with MM1.S [2], 15.9%; in the assay with MM1.S [3], 18.8%. Moreover, in the assay on MM1.S [4], the viability at 5 µM was determined as 64.9%.

The record behind these values is ChEMBL document CHEMBL5647697, “Akt inhibition synergizes with polycomb repressive complex 2 inhibition in the treatment of multiple myeloma” (2019).
